Each structure is given as a SMILES string.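 Assay format: 96-well plates, 48-hour exposure. GI50 = concentration required for 50% inhibition of growth. TGI denotes the concentration required for complete inhibition of growth.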

Common to all, as to test: NCI-60 cell line screen, 48 h
The test system of experiment [1] is HCT-15 colon.
Experiment [2] concerns HT29 colon.
Experiment [3] deals with IGROV1 ovarian.
The test system of experiment [4] is LOX IMVI melanoma.
In experiment [5] the test system is MCF7 breast.
Experiment [6] concerns MDA-MB-435.
Experiment [7] has as its system NCI-H226 lung.
The subject of experiment [8] is SK-MEL-28 melanoma.
Experiment [9] relates to SNB-19 CNS.
In experiment [10] the test system is UACC-257 melanoma.

Turning to `COc1cc(-c2ncn(/C=C\c3nnco3)n2)cc(C(F)(F)F)c1`, the GI50 in experiment [1] is 0.282 µM; in [2] it was 0.191 µM; in experiment [3], 1.89 µM; in [4], 0.0906 µM; in [5] it was 0.179 µM; in experiment [6] it was 0.0894 µM. In addition, the GI50 in experiment [7] is 0.0312 µM; in [8], 0.125 µM; in experiment [9], 0.175 µM; in [10], 0.368 µM. Also, the TGI is more than 100 µM in experiment [1]; 50.8 µM in experiment [2]; more than 100 µM in [3]; 2.02 µM in experiment [4]; more than 33.4 µM in experiment [5]; 3.33 µM in experiment [6]. The TGI in experiment [7] is 4.3 µM; in experiment [8] it was more than 34.6 µM; in experiment [9], more than 100 µM; in experiment [10], more than 52.5 µM.

On to `COc1ccc(/C=N\Nc2nc(SCC(C)C)nc(-c3ccc(OC)cc3)c2C#N)cc1`, for which the GI50 in experiment [1] is 11.7 µM; in experiment [2] it was 3.19 µM; in [3], 1.92 µM; in experiment [4], 18.2 µM; in [5], 13.8 µM; in experiment [6], 17.9 µM. Also, the GI50 is 10.5 µM in experiment [7], 30.8 µM in experiment [8], 6.81 µM in experiment [9] and 3.35 µM in [10]. Moreover, the TGI in experiment [1] is more than 100 µM; in experiment [2], 20.1 µM; in experiment [3] it was 20 µM; in experiment [4], 75.2 µM; in [5] it was more than 100 µM; in [6] it was more than 100 µM. Besides, the TGI in experiment [7] was 49.7 µM; in [8], more than 100 µM; in experiment [9], 33.3 µM; in experiment [10], 35.7 µM.

With `O=C1C(Sc2ccc3ccccc3c2)=C(Sc2ccc3ccccc3c2)C(=O)c2ccccc21`, the TGI came to 23.5 µM in [1]; 29 µM in experiment [2]; 47.8 µM in experiment [4]; 40.2 µM in experiment [5]; 31.5 µM in [6]; 37.4 µM in experiment [7]. Moreover, the figures for the TGI in [8], in experiment [9] and in experiment [10] were 28.5 µM, 20.3 µM and 16.3 µM, respectively.

Turning to `COc1ccc(OC)c(Cc2cnc3nc(N)nc(N)c3c2C)c1`, the TGI in [1] is 11.4 µM; in experiment [2] it was 20 µM; in experiment [3], 2.61 µM; in experiment [4], 25.6 µM; in experiment [5], 28.6 µM; in experiment [6] it was more than 49 µM. Also, the TGI was 33.3 µM in [7], more than 51 µM in [8], 55.4 µM in [9] and 47.4 µM in experiment [10].

In the case of `CC1CCN(CCOc2ccc(CNc3ccc4nc(CCC5CCCCC5)[nH]c4c3)cc2)CC1`, the GI50 in experiment [1] is 1.43 µM; in [2] it was 1.15 µM; in [3], 1.59 µM; in experiment [4], 1.67 µM; in experiment [5], 1.73 µM; in [6], 1.64 µM. Moreover, the results for the GI50 in [7], in experiment [9] and in experiment [10] were 1.63 µM, 2.03 µM and 1.88 µM, respectively. Also, the TGI worked out at 3.03 µM in experiment [1]; 2.81 µM in experiment [2]; 3.27 µM in experiment [3]; 3.1 µM in [4]; 3.8 µM in experiment [5]; 3.07 µM in experiment [6]. Also, the TGI in experiment [7] turned out to be 3.48 µM; in experiment [9], 4.2 µM; in [10], 3.74 µM.

On to `CN1CCCC1c1cccnc1.O=C(O)c1ccccc1O.O=C([O-])c1ccccc1[OH2+].O=C([O-])c1ccccc1[OH2+].[Mn+2]` (configuration not stated), for which the GI50 was more than 100 µM in experiment [1]; 98 µM in experiment [2]; more than 100 µM in [3]; more than 100 µM in [4]; 40.3 µM in [5]; more than 100 µM in [6]. The GI50 in experiment [7] was more than 100 µM; in [8], more than 100 µM; in experiment [9], more than 100 µM; in experiment [10], 56.7 µM. The TGI in [1], in [2], in experiment [3], in [4], in experiment [5] and in [6] was more than 100 µM throughout. In addition, the TGI in [7], in experiment [8], in experiment [9] and in [10] was more than 100 µM throughout.

`N#Cc1cccc(Nc2ncc(-c3ccccc3)o2)c1`: the GI50 in experiment [1] is 16.8 µM; in experiment [2], more than 25 µM; in [3], 11.7 µM; in [4], 9.47 µM; in experiment [5], 8.25 µM; in [6], more than 25 µM. In addition, the GI50 was 8.65 µM in experiment [7], more than 20.4 µM in experiment [8], 17.3 µM in experiment [9] and more than 25 µM in experiment [10]. The TGI in experiment [1], in experiment [2], in experiment [3], in [4], in experiment [5] and in experiment [6] was more than 25 µM throughout. Moreover, the TGI in experiment [7], in experiment [8], in experiment [9] and in experiment [10] was more than 25 µM throughout.

For the compound `O=C1/C(=C/c2ccccc2O)N=C(c2ccccc2)N1c1cc(C(F)(F)F)ccc1Cl`, the GI50 in experiment [1] is 64.7 µM; in [2], more than 100 µM; in [3] it was 14.3 µM; in experiment [4] it was 40.8 µM; in experiment [5], 3.04 µM; in experiment [6], 22.1 µM. Further, the GI50 was 33 µM in experiment [7], more than 100 µM in experiment [8], 31.6 µM in experiment [9] and more than 100 µM in [10]. Also, the TGI in experiment [1] was more than 100 µM; in experiment [2], more than 100 µM; in experiment [3], 64.3 µM; in experiment [4], more than 100 µM; in [5] it was more than 100 µM; in experiment [6] it was more than 100 µM. Further, the TGI in experiment [7], in experiment [8], in experiment [9] and in experiment [10] was more than 100 µM in each case.

As to `N#C/C(=C\c1cc2ccc(N3CCC3)cc2oc1=O)C(=O)N(CC(=O)O)CC(=O)O`, the GI50 in experiment [1] was 95.5 µM; in experiment [2] it was more than 100 µM; in [3], more than 100 µM; in experiment [4], more than 100 µM; in experiment [5], more than 100 µM; in experiment [6], more than 100 µM. Besides, the GI50 in experiment [7], in [8], in experiment [9] and in [10] was more than 100 µM throughout. In addition, the TGI in experiment [1], in experiment [2], in experiment [3], in experiment [4], in [5] and in experiment [6] was more than 100 µM each time. The TGI in [7], in [8], in experiment [9] and in experiment [10] was more than 100 µM each time.

Take `CN1C(=NCCO)NS(=O)(=O)c2ccccc21`: the TGI in [1], in [2], in experiment [3], in experiment [4], in experiment [5] and in experiment [6] was more than 100 µM throughout. In addition, the TGI in [7], in experiment [8], in experiment [9] and in experiment [10] was more than 100 µM throughout.

For the compound `O=C(c1ccco1)c1c(C(F)(F)F)n([O-])c2cc(F)c(F)cc2[n+]1=O`, the GI50 was less than 0.0464 µM in [1]; 0.609 µM in experiment [2]; 1.07 µM in experiment [3]; 0.108 µM in experiment [5]; 0.553 µM in experiment [6]; 0.926 µM in experiment [7]. Further, the GI50 was 0.416 µM in experiment [8], 1.02 µM in [9] and 1.29 µM in [10]. Moreover, the TGI in experiment [1] was 0.149 µM; in [2], more than 100 µM; in experiment [3], 3.31 µM; in experiment [4] it was 0.459 µM; in [5] it was 2.62 µM; in [6], 3.45 µM. Besides, the TGI in [7] came to 2.35 µM; in [8], 2.58 µM; in experiment [9], 2.35 µM; in experiment [10] it was 3.01 µM.

Turning to `CCn1ccnc1C(=O)/C=C/c1ccc(CC(=O)Nc2ccc(F)cc2)cc1`, the GI50 in [1] was 1.93 µM; in experiment [2] it was 5.64 µM; in [3], 4.63 µM; in experiment [4], 0.561 µM; in experiment [5] it was 2.52 µM; in [6], 4.58 µM. For the same compound, the GI50 in experiment [7] was 3.61 µM; in [8] it was 4.92 µM; in [9], 3.58 µM; in experiment [10], 14 µM. The TGI in experiment [1] was 8.96 µM; in [2] it was more than 16.7 µM; in experiment [3] it was more than 16.7 µM; in [4], 2.83 µM; in [5] it was more than 16.7 µM; in experiment [6], more than 16.7 µM. The TGI is 9.53 µM in experiment [7], more than 16.7 µM in [8], more than 16.7 µM in experiment [9] and more than 16.7 µM in experiment [10].

`O=c1[nH]c(=S)[nH]c(-c2ccccc2)c1Cc1c(O)ccc2ccccc12`: the TGI in experiment [1] is more than 100 µM; in [2], more than 100 µM; in experiment [3] it was more than 100 µM; in experiment [4] it was more than 100 µM; in [5], more than 100 µM; in experiment [6] it was 93 µM. In addition, the TGI in experiment [7] is 82.1 µM; in experiment [8], more than 100 µM; in experiment [9] it was more than 100 µM; in experiment [10], 62.7 µM.

For the compound `Clc1nc(Cl)c2ncn(CCOCCn3cnc4c(Cl)nc(Cl)nc43)c2n1`, the GI50 is 0.185 µM in experiment [1]; 0.207 µM in [3]; 0.185 µM in experiment [4]; 0.192 µM in experiment [5]; 0.204 µM in [6]; 1.56 µM in [7]. In addition, the GI50 is 0.199 µM in [8], 0.448 µM in experiment [9] and 0.235 µM in [10]. The TGI came out at 0.365 µM in experiment [1]; 0.408 µM in experiment [3]; 0.35 µM in [4]; 0.455 µM in experiment [5]; 0.466 µM in experiment [6]; 3.2 µM in experiment [7]. Also, the TGI in experiment [8] stood at 0.362 µM; in [9], 0.968 µM; in experiment [10], 0.488 µM.

As to `CCOC(=O)C(Cc1ccc(N(CCCl)CCCl)cc1)NC(=O)C(Cc1ccccc1)NC(C)=O` (configuration not stated), the TGI is more than 1 µM in [1]; more than 0.219 µM in [2]; more than 0.308 µM in experiment [3]; more than 0.386 µM in experiment [4]; 0.496 µM in [5]; more than 1 µM in [6]. Also, the TGI in experiment [7] was more than 1 µM; in experiment [9], more than 0.578 µM; in experiment [10], more than 0.486 µM.

In the case of `CC1CCC2C(CN(CC3=C(C(F)(F)F)OC4OC5(C)CCC6C(C)CCC3C46OO5)CC3=C(C(F)(F)F)OC4OC5(C)CCC6C(C)CCC3C46OO5)=C(C(F)(F)F)OC3OC4(C)CCC1C32OO4` (configuration not stated), the GI50 in experiment [1] is 10 µM; in [2], 25.1 µM; in experiment [5], 20.9 µM; in experiment [6], 4.54 µM; in experiment [7], 19.4 µM; in experiment [8], 30.1 µM. Besides, the figures for the GI50 in experiment [9] and in experiment [10] were 30.8 µM and 27.1 µM, respectively. Also, the TGI in [1] is 25.7 µM; in experiment [2], more than 100 µM; in experiment [5] it was 59.9 µM; in [6], 17.3 µM; in experiment [7], 57.8 µM; in experiment [8], more than 100 µM. Moreover, the TGI in [9] and in [10] was more than 100 µM in each case.

On to `C=CC(=O)N[C@@H](/C=C/C(=O)OCC)Cc1ccc(-c2cc(Cl)cc(Cl)c2)cc1`, for which the GI50 in [1] is 8.01 µM; in [2], 12.8 µM; in experiment [3] it was 12.7 µM; in experiment [4], 14.2 µM; in experiment [5] it was 5.92 µM; in experiment [6], 8.58 µM. Besides, the GI50 in experiment [7] is 16.7 µM; in experiment [8], 18.1 µM; in experiment [9], 16.5 µM. Further, the TGI in [1] was more than 100 µM; in experiment [2], 41.9 µM; in experiment [3] it was more than 100 µM; in experiment [4], 35.6 µM; in [5], 66.4 µM; in experiment [6] it was 50 µM. Moreover, the TGI in [7] is 71.7 µM; in experiment [8], 79.8 µM; in experiment [9], more than 100 µM.

(Values after PubChem BioAssay (NCI).)
